Data taken from the NIST ThermoML archive (doi:10.1016/j.tca.2018.04.018).

Key:
[1] = molar heat capacity at constant pressure; xn = mol fraction of the nth substance listed; settings: Flow calorimetry
[2] = molar heat capacity at constant pressure; settings: 3000 kPa, Flow calorimetry

CCCCC [pentane] + CC(C)=O
[1]
Settings | molar heat capacity at constant pressure [J/K/mol]
423.14 K, 3900 kPa, Liquid, x1 = 0.25 | 170.75
423.14 K, 7920 kPa, Liquid, x1 = 0.5 | 179.32
423.15 K, 2000 kPa, Liquid, x1 = 0.25 | 174.5
423.15 K, 2900 kPa, Liquid, x1 = 0.5 | 194.43
423.15 K, 4000 kPa, Liquid, x1 = 0.5 | 190.78
423.15 K, 6000 kPa, Liquid, x1 = 0.25 | 171.36
423.15 K, 6050 kPa, Liquid, x1 = 0.5 | 184.14
423.15 K, 7960 kPa, Liquid, x1 = 0.25 | 163.97
423.16 K, 1080 kPa, Gas, x1 = 0.5 | 145.86
423.16 K, 2300 kPa, Liquid, x1 = 0.25 | 175.12
423.17 K, 1080 kPa, Gas, x1 = 0.25 | 135.14
483.14 K, 2960 kPa, Gas, x1 = 0.5 | 180.5
483.14 K, 4000 kPa, Gas, x1 = 0.5 | 283.18
483.15 K, 4480 kPa, Fluid (supercritical or subcritical phases), x1 = 0.5 | 750.83
483.15 K, 7050 kPa, Fluid (supercritical or subcritical phases), x1 = 0.5 | 233.69
483.15 K, 8160 kPa, Fluid (supercritical or subcritical phases), x1 = 0.5 | 218.13
483.16 K, 5000 kPa, Fluid (supercritical or subcritical phases), x1 = 0.5 | 446.03
483.16 K, 6100 kPa, Fluid (supercritical or subcritical phases), x1 = 0.5 | 260.13
493.15 K, 3860 kPa, Gas, x1 = 0.25 | 221.56
493.15 K, 4530 kPa, Fluid (supercritical or subcritical phases), x1 = 0.25 | 611.96
493.15 K, 4742 kPa, Fluid (supercritical or subcritical phases), x1 = 0.25 | 1236.9
493.15 K, 7920 kPa, Fluid (supercritical or subcritical phases), x1 = 0.25 | 214.05
493.16 K, 3140 kPa, Gas, x1 = 0.25 | 173.64
493.16 K, 6000 kPa, Fluid (supercritical or subcritical phases), x1 = 0.25 | 263.45
503.14 K, 3200 kPa, Gas, x1 = 0.25 | 167.97
503.14 K, 4120 kPa, Gas, x1 = 0.25 | 214.42
503.15 K, 6180 kPa, Fluid (supercritical or subcritical phases), x1 = 0.25 | 330.59
503.15 K, 7820 kPa, Fluid (supercritical or subcritical phases), x1 = 0.25 | 229.45
503.16 K, 5400 kPa, Fluid (supercritical or subcritical phases), x1 = 0.25 | 600.07
508.15 K, 2980 kPa, Gas, x1 = 0.5 | 175.81
508.15 K, 4060 kPa, Gas, x1 = 0.5 | 200.68
508.15 K, 6050 kPa, Fluid (supercritical or subcritical phases), x1 = 0.5 | 360.73
508.15 K, 6930 kPa, Fluid (supercritical or subcritical phases), x1 = 0.5 | 310.98
508.15 K, 8010 kPa, Fluid (supercritical or subcritical phases), x1 = 0.5 | 261.37
508.16 K, 5030 kPa, Fluid (supercritical or subcritical phases), x1 = 0.5 | 258.63

O [water]
[2]
Settings | molar heat capacity at constant pressure [J/K/mol]
330.2 K, Liquid | 75.29
340.1 K, Liquid | 75.41
358.4 K, Liquid | 75.61
368.2 K, Liquid | 75.61
378.6 K, Liquid | 75.99
388.4 K, Liquid | 76.49
398.5 K, Liquid | 76.51
408.6 K, Liquid | 77.48
418.8 K, Liquid | 76.93
428.6 K, Liquid | 77.72
438.5 K, Liquid | 78.11
448.2 K, Liquid | 78.91
458.5 K, Liquid | 79.41
468.2 K, Liquid | 80.92
478.2 K, Liquid | 81.81
488.7 K, Liquid | 83.32
498.1 K, Liquid | 83.92
508.4 K, Gas | 63.31
